# Reference: patent publication US5183821A, “Method for treating leukemias using N-(2-dimethylaminoethyl)-3-amino-1,8-naphthalimide for treating leukemias and solid tumors” (priority 1991, dated 1993)
# Values joined by “and” are separate entries in the source; they are usually repeats but may differ in a detail not shown here. Equal values may be shown once. “Also recorded” adds a separate entry of the source.
# Assays:
# CD8F1 mammary tumor = assay: NCI screen, CD8F1 mammary tumor, subcutaneous (summary); type: in vivo, Mouse; conditions: for Antitumor activity in words: CD8F1 mammary
# From the text: (§1) The activity of the compound has been evaluated by experiments carried out under the auspices of the Division of Cancer Treatment, National Cancer Institute, employing techniques considered to be reliable indicators of chemotherapeutic utility in the treatment of forms of cancer in human patients. The details of the methodology employed in the reported experiments may be determined with reference to established NCI screening methods. In the experiments conducted by the NCI, evaluation of activity is made on the basis of appropriate parameters, such as median survival time (MST) or change in average tumor diameter (CATD)in ocular micrometer units (OMU).
# Lewis lung carcinoma = assay: NCI screen, Lewis lung carcinoma, intravenous (summary); type: in vivo, Mouse; conditions: for Antitumor activity in words: Lewis lung carcinoma
# From the text: as §1
# [1] = system: P 388 Lymphocytic leukemia; assay: Experiment 10: P388 i.p., 10^6 cells, saline with Tween-80, male; type: in vivo, Mouse CD2F1 (CDF1)
# From the text: Tumor: P 388 Lymphocytic leukemia
# (§2) Inoculum Site: Intraperitoneal
# (§3) Vehicle: Saline with Tween-80
# (§4) Treatment schedule (relative to tumor inoculation day): daily on days 1-9
# Day of evaluation (relative to tumor inoculation day): 30
# (§5) Parameter: Median survival time (MST) in days
# NCI minimal activity criteria: Percent T/C≥120
# (§6) Percent T/C: Ratio of test (T) evaluation to control (C) evaluation expressed as a percentage
# Fischer 344 rats = assay: Single dose rat toxicity study; type: in vivo; conditions: for toxicity summary, rats: single dose i.v. (X1)
# Method: Preclinical toxicity studies of BIDA were completed in CD2F1 Mice, Fischer 344 rats and beagle dogs (4). The animals were injected IV with a single bolus or daily for five days.
# (§7) A preclinical toxicology study of benzisoquinolinedione (NSC-308847) was done at Springborn Institute for Bioresearch, Inc. using CD2 F1 mice, Fischer 344 rats and beagle dogs. Animals were injected intravenously on a single dose (X1) or five daily dose (X5) regimen. Bulk drug was titrated with 0.5N HCl to form a salt solution of benzisoquinolinedione at a pH of 5.0-6.5. Sterile 0.9% saline was used for diluting the dosing solutions and was used for the vehicle control animals.
# The following summarizes the major organ toxicities resulting from IV administration of benzisoquinolinedione to rats.
# HeLa cells = conditions: cytotoxic activity in vitro, monolayer; cited from earlier work
# [2] = system: P388 Lymphocytic leukemia; assay: NCI screen, P388 Lymphocytic leukemia, intraperitoneal (summary); type: in vivo, Mouse; conditions: for maximum increased life span: days 2-9 as printed; for Antitumor activity in words: P388
# From the text: (§8) The activity of the compound has been evaluated by experiments carried out under the auspices of the Division of Cancer Treatment, National Cancer Institute, employing techniques considered to be reliable indicators of chemotherapeutic utility in the treatment of forms of cancer in human patients. The details of the methodology employed in the reported experiments may be determined with reference to established NCI screening methods.
# (§9) In the experiments conducted by the NCI, evaluation of activity is made on the basis of appropriate parameters, such as median survival time (MST) or change in average tumor diameter (CATD)in ocular micrometer units (OMU).
# The compound was found initially to be active in the P388 leukemia pre-screen, with T/C values (ratio of Test (T) evaluation to control (C) evaluation expressed as a percentage) of 177 and 176. Both values exceed the minimum T/C values for interest by the Decision Network Committe.
# B16 Melanocarcinoma [3] = assay: Experiment 20: B16 i.p., acid diluted with saline, female; type: in vivo, Mouse B6 C3 F1
# From the text: (§10) Tumor: B16 Melanocarcinoma
# as §2
# (§11) Tissue: Homogenate (or brei), tumor
# Vehicle: Acid diluted with saline
# as §4
# (§12) Day of evaluation (relative to tumor inoculation day): 60
# as §5
# (§13) NCI minimal activity criteria: Percent T/C≥125
# as §6
# Colon 38 = assay: NCI screen, Colon 38, subcutaneous (summary); type: in vivo, Mouse; conditions: for Antitumor activity in words: colon 38
# From the text: as §8, §9
# CD2 F1 mice = assay: Single dose (X1) mouse range-finding and lethality study; type: in vivo
# Method: as §7
# (§14) All mortality and toxic signs occurred on day 1 in both the X1 range-finding and lethality studies.
# (§15) Defined Doses for the Single Dose Mouse Lethality
# [4] = as above; type: in vivo, CD2 F1 mice; conditions: mouse, in vivo, iv
# Method: as §7, §14, §15
# B16 Melanocarcinoma [5] = assay: Experiment 16: B16 i.p., saline with Tween-80, male; type: in vivo, Mouse B6 C3 F1
# From the text: as §10, §2, §11, §3, §4, §12, §5, §13, §6
# [6] = 15.0 mg/kg, listed as benzisoquinolinedione
smiles,measurement,setting,value
"CN(C)CCN1C(=O)c2cccc3cc(N)cc(c23)C1=O [Example 9, 1H-Benz[de]isoquinoline-1,3(2H)-dione, 5-amino-2-[2-(dimethylamino)ethyl]]",Antitumor activity in words,CD8F1 mammary tumor; listed as BIDA,not active
same,Antitumor activity in words,CD8F1 mammary tumor; listed as the compound,not observed to be effective
same,Table II evaluation,"CD8F1 mammary tumor; change in median tumor weight, 15 tests, full wrapped cell: Activity not confirmed",Activity not
same,Antitumor activity in words,Lewis lung carcinoma; listed as BIDA,not active
same,Antitumor activity in words,Lewis lung carcinoma; listed as the compound,not observed to be effective
same,Table II evaluation,"Lewis lung carcinoma; median survival time, 12 tests, full wrapped cell: Activity not confirmed",Activity not
same,Median survival time (MST),[1]; 2.00 mg/kg i.p.,13.3 days
same,Percent T/C,[1]; 2.00 mg/kg i.p.,135%
same,Median survival time (MST),[1]; 4.00 mg/kg i.p.,14.0 days
same,Percent T/C,[1]; 4.00 mg/kg i.p.,142%
same,Median survival time (MST),[1]; 8.00 mg/kg i.p.,17.3 days
same,Percent T/C,[1]; 8.00 mg/kg i.p.,176%
same,Median survival time (MST),[1]; 16.00 mg/kg i.p.,13.0 days
same,Percent T/C,[1]; 16.00 mg/kg i.p.,132%
same,Median survival time (MST),[1]; 32.00 mg/kg i.p.,6.1 days
same,Mortality / lethality,"Fischer 344 rats; 15.0 mg/kg (1/2MELD10), single",0/20
same,Hematologic findings,Fischer 344 rats; [6],Mild decreases in leukocytes were seen in males on day 4; also recorded: mild decreases in reticulocytes were seen in females
same,Microscopic hematologic lesions,Fischer 344 rats; [6],mild diffuse thymic atrophy in three male rats on day 4; also recorded: No hematologic lesions were seen in either sex on day 29
same,Microscopic hematologic lesions,"Fischer 344 rats; 30.0 mg/kg, day 4 and day 29, listed as benzisoquinolinedione","moderate to marked diffuse bone marrow atrophy and mild to moderate diffuse thymic atrophy; also recorded: by day 29, no hematologic lesions were found"
same,Reproductive findings,"Fischer 344 rats; 30.0 mg/kg, day 29",All five long-term male rats showed decreased testicular weights
same,Hematologic findings,"Fischer 344 rats; 30.0 mg/kg, listed as benzisoquinolinedione","Mild decreases in hemoglobin, hematocrit and red blood cells were seen in females on days 4 and 8, but not in males; also recorded: moderate decreases in reticulocytes and leukocytes on day 4 with moderate increases following on day 8"
same,"mild diffuse testicular atrophy, incidence","Fischer 344 rats; 30.0 mg/kg, males, day 29",four of five
same,Mortality / lethality,"Fischer 344 rats; 35.0 mg/kg (MELD50), single",0/20
same,Microscopic hematologic lesions,"Fischer 344 rats; 35.0 mg/kg, day 4",marked to severe diffuse bone marrow atrophy and mild to moderate diffuse thymic atrophy
same,Reproductive findings,"Fischer 344 rats; 35.0 mg/kg, day 29, listed as benzisoquinolinedione",All five male rats showed decreased testicular weights and mild diffuse testicular atrophy; also recorded: No reproductive lesions were seen in females
same,Hematologic findings,"Fischer 344 rats; 35.0 mg/kg, listed as benzisoquinolinedione","Mild decreases in hemoglobin, hematocrit and red blood cells; also recorded: moderate decreases in reticulocytes in both sexes on day 4, followed by moderate increases on day 8; also recorded: Leukopenia (both lymphocytes and neutrophils); also recorded: Both sexes were comparable to controls on days 22 and 29"
same,Mortality / lethality,"Fischer 344 rats; MELD10, single, 30.0 mg/kg in text, 20.00 in Table 4",0/20
same,"toxicity summary, rats",Fischer 344 rats; listed as BIDA,reproductive system toxicity was seen at doses of MELD 10 and higher; also recorded: decreased testicular weights and mild diffuse testicular atrophy
same,"toxicity summary, rats",Fischer 344 rats; listed as benzisoquinolinedione,"toxic on both schedules (X1, X5) to the hematopoietic system and to the male reproductive system"
same,ID50 in HeLa cells,HeLa cells,2.5 µg/mL
same,maximum increased life span,[2]; 8 mg/kg i.p.,76%
same,maximum increased life span,[2]; 16 mg/kg i.p.,77%
same,Antitumor activity in words,[2]; listed as BIDA,active
same,Antitumor activity in words,[2]; listed as the compound,at least a reproducible minimal activity
same,Table II evaluation,"[2]; median survival time, 9 tests, full wrapped cell: Reproducible minimal activity",Reproducible minimal
same,T/C values in the P388 leukemia pre-screen,"[2]; test/control as percentage, listed as the compound",177% and 176%
same,Median survival time (MST),B16 Melanocarcinoma [3]; 0.00 mg/kg [sic] i.p.,18.3 days
same,Percent T/C,B16 Melanocarcinoma [3]; 0.00 mg/kg [sic] i.p.,97%
same,Median survival time (MST),B16 Melanocarcinoma [3]; 2.00 mg/kg i.p.,18.3 days
same,Percent T/C,B16 Melanocarcinoma [3]; 2.00 mg/kg i.p.,97%
same,Median survival time (MST),B16 Melanocarcinoma [3]; 4.00 mg/kg i.p.,20.0 days
same,Percent T/C,B16 Melanocarcinoma [3]; 4.00 mg/kg i.p.,106%
same,Median survival time (MST),B16 Melanocarcinoma [3]; 8.00 mg/kg i.p.,20.9 days
same,Percent T/C,B16 Melanocarcinoma [3]; 8.00 mg/kg i.p.,111%
same,Median survival time (MST),B16 Melanocarcinoma [3]; 16.00 mg/kg i.p.,20.8 days
same,Percent T/C,B16 Melanocarcinoma [3]; 16.00 mg/kg i.p.,110%
same,Median survival time (MST),B16 Melanocarcinoma [3]; 32.00 mg/kg i.p.,6.7 days
same,"T/C, growth of s.c. implanted colon 38 tumor",Colon 38; 64 mg/kg i.p.,17%
same,inhibition at 64 mg/kg,"Colon 38; Mus musculus, 64 mg/kg i.p., read-out: inhibition of growth of s.c. implanted colon 38 tumor",83%
same,Antitumor activity in words,Colon 38; listed as BIDA,not active
same,Antitumor activity in words,Colon 38; listed as the compound,at least a reproducible minimal activity; also recorded: active
same,Table II evaluation,"Colon 38; median tumor weight, 25 tests, full wrapped cell: Reproducible minimal activity",Reproducible minimal
same,"body weight, mice",CD2 F1 mice; X1,Only slight weight loss
same,"time of deaths, mice",CD2 F1 mice; X1,within a few minutes after dosing
same,"toxic signs, mice","CD2 F1 mice; X1, listed as benzisoquinolinedione","labored breathing, struggling and exophthalmus; also recorded: loss of locomotor ability, decreased activity and rough hair coats; also recorded: All surviving animals were normal within a few hours"
same,LD50,CD2 F1 mice; combined sexes,207.3 mg/m^2
same,Slope (lethality),CD2 F1 mice; combined sexes,23.1
same,LD10,CD2 F1 mice; female,62.2 mg/kg
same,LD50,CD2 F1 mice; female,214.2 mg/m^2
same,Slope (lethality),CD2 F1 mice; female,21.2
same,LD50,CD2 F1 mice; male,201.3 mg/m^2
same,Slope (lethality),CD2 F1 mice; male,26.0
same,LD50,[4]; combined sexes,69.1 mg/kg
same,LD50,[4]; female,71.4 mg/kg
same,LD50,[4]; male,67.1 mg/kg
same,Median survival time (MST),B16 Melanocarcinoma [5]; 1.00 mg/kg i.p.,17.6 days
same,Percent T/C,B16 Melanocarcinoma [5]; 1.00 mg/kg i.p.,102%
same,Median survival time (MST),B16 Melanocarcinoma [5]; 2.00 mg/kg i.p.,17.3 days
same,Percent T/C,B16 Melanocarcinoma [5]; 2.00 mg/kg i.p.,101%
same,Median survival time (MST),B16 Melanocarcinoma [5]; 4.00 mg/kg i.p.,19.3 days
same,Percent T/C,B16 Melanocarcinoma [5]; 4.00 mg/kg i.p.,112%
same,Median survival time (MST),B16 Melanocarcinoma [5]; 8.00 mg/kg i.p.,20.3 days
same,Percent T/C,B16 Melanocarcinoma [5]; 8.00 mg/kg i.p.,118%
same,Median survival time (MST),B16 Melanocarcinoma [5]; 16.00 mg/kg i.p.,35.0 days
same,Percent T/C,B16 Melanocarcinoma [5]; 16.00 mg/kg i.p.,87%
same,Median survival time (MST),B16 Melanocarcinoma [5]; 32.00 mg/kg i.p.,8.3 days
